Test results published in patent publication US20160228388A1, “METHODS OF ADMINISTERING AMANTADINE COMPOSITIONS” (Adamas Pharmaceuticals, Inc., priority 2014, published 2016).
Counter-ions that a name gives are not always drawn.

Tests used:
[1] = system: MOG35-55 induced experimental autoimmune encephalomyelitis (EAE) in C57BL/6 mice; experiment: Example 9: kinematic gait analysis / MotoRater walk test in EAE mice; assay type: in vivo; conditions: for % of animals able to complete the walking test: day 16, EAE mice, untreated EAE control 40%, FIG. 9
Method: The captured videos of each mouse were first converted to SimiMotion software to track the marked points of body (e.g., paws, hips, tail, etc.), and the movement of these different body points in relation to the ground were recorded in coordinates. Different gait patterns and fine motor movements were analyzed using a custom made automated analysis system. Kinematic endpoints are described in Table 13. [table] Kinematic parameters (Table 13) were graphed as individual values in a scatter graph and/or as mean (±SEM) in a bar graph.

[2] = system: Iba-1; experiment: Example 9: Iba-1 expression (marker of microglia activation) in EAE mice; assay type: in vivo; conditions: AMT 60 mg/kg/day, FIG. 8
[3] = system: MOG35-55 induced experimental autoimmune encephalomyelitis (EAE) in C57BL/6 mice; experiment: Example 9: clinical scoring of EAE in a mouse model of multiple sclerosis; assay type: in vivo; conditions: for onset of disease / clinical scores: AMT 60 mg/kg/day or DAL 4 mg/kg/day by Alzet minipump; for clinical scores: vs untreated EAE mice, FIG. 6; for cumulative clinical score (Day 18-27): vs untreated control, FIG. 7
[4] = dose related; Gracies and Olanow 2002; cited from earlier work
[5] = system: Parkinson's patients; conditions: cited from earlier work
[6] = system: multiple sclerosis patients; conditions: Goodman et al. 2009; cited from earlier work

SMILES	60 cm Walk Time ([1]; Day 14, vs untreated EAE control and dalfampridine-treated group, FIG. 10A)	mean walking speed ([1]; Day 14, vs untreated EAE control and dalfampridine-treated group, FIG. 10B)	% of animals able to complete the walking test [1] [%]	Iba-1 expression [2]	symptom severity ([3]; AMT 60 mg/kg/day by Alzet minipump)	onset of disease [3]	clinical scores [3]	cumulative clinical score (Day 18-27) [3]	CNS side effects [4]	gait impairment ([5]; Parkinson's disease, Espay et al. 2011)	gait ([5]; Parkinson's patients with severe gait disorders receiving STN stimulation, Moreau et al. 2012)	walking ability [6]	walking ability (velocity and stride length) ([5]; Parkinson's patients, at four weeks, Luca et al. 2015)
NC12CC3CC(CC(C3)C1)C2 [Amantadine HCl]	lower time	faster mean walking speed	60	significantly lower expression	decreased symptom severity	Neither group treated with drug showed a delay onset of disease	lower clinical scores	reduced cumulative clinical scores	dose related CNS side effects including dizziness, confusion, hallucinations, insomnia and nightmares	–	–	–	–
COC(=O)C(c1ccccc1)C1CCCCN1 (centres unmarked) [Methylphenidate]	–	–	–	–	–	–	–	–	–	not effective	improvement in gait	–	–
Nc1ccncc1 [Dalfampridine, 4-Aminopyridine]	–	–	50	–	–	Neither group treated with drug showed a delay onset of disease	lower clinical scores	reduced cumulative clinical scores	–	–	–	improvement in walking ability in some patients	did not show an improvement
